pIC50: −log10 of the molar value. One block for each molecule: values may come before it.
Legend:
[1] = tested on: house dust mites (HDM)-sensitized Beagle dogs; test: In vivo model of house dust mite induced canine allergic dermatitis; conditions: for reduction rates of edema / reduction rates of erythema: range over time points
Experimental: Therein, HDM-sensitization consisted of a series of subcutaneous injections of HDM antigen (10 μg, Greer Laboratories, Lenoir, N.C., USA) and Alhydrogel® (0.2 mL, InvivoGen, San Diego, Calif. 921221, USA) as adjuvant in time intervals of approximately two weeks. The sensitization process was monitored and confirmed by intradermal skin testing. […] The control group was not treated while the group treated with the compound according to formula (IIIa) supra was orally treated with gelatin capsules containing the compound according to formula (IIIa) supra and Ac-Di-Sol; the group receiving Apoquel®, received the commercially available tablets. […] Plasma samples were analyzed to determine exposure to the compound in relationship to the clinical evaluations. […] This is illustrated by Tables 1 and 2, and by FIGS. 1 and 2.

IRAK4 = IRAK4 (Canis lupus familiaris, UniProt A0A8I3S726); test: Radiometric protein kinase assay, dog IRAK4; type: biochemical, Dog (Canis lupus familiaris); conditions: 10 μM ATP
Experimental: (§1) A radiometric protein kinase assay was used for measuring the kinase activity of the Dog (Canis lupus familiaris) IRAK4, JAK1, JAK2, SYK kinases. All kinase assays were performed in 96-well FlashPlates in a 50 μl reaction volume. The reaction cocktail was pipetted in four steps in the following order: • 20 μl of assay buffer (standard buffer) • […] of test compound (in 10% DMSO) • 20 μl enzyme/substrate mix • […] (in H2O) The reaction cocktails were incubated at 30° C. for 60 minutes. The reaction was stopped with 50 μl of 2% (v/v) H3PO4, plates were aspirated and washed two times with 200 μl 0.9% (w/v) NaCl. Incorporation of 33Pi was determined with a microplate scintillation counter.
(§2) IC50 calculation: the residual activity (in %) for each well of a particular plate was calculated by using the following formula: Res. Activity (%)=100×[(cpm of compound−low control)/(high control−low control)]
(§3) The residual activities for each concentration and the compound IC50 values were calculated using Quattro Workflow V3.1.1 (Quattro Research GmbH, Munich, Germany; www.quattro-research.com). The fitting model for the IC50 determinations was “Sigmoidal response (variable slope)” with parameters “top” fixed at 100% and “bottom” at 0%. The fitting method used was a least-squares fit. […]

SYK = SYK (Canis lupus familiaris, UniProt A0A8I3P3G0); test: Radiometric protein kinase assay, dog SYK; type: biochemical, Dog (Canis lupus familiaris); conditions: 1 μM ATP
Experimental: A radiometric protein kinase assay was used for measuring the kinase activity of the Dog (Canis lupus familiaris) IRAK4, JAK1, JAK2, SYK kinases. All kinase assays were performed in 96-well FlashPlates in a 50 μl reaction volume. […] The reaction was stopped with 50 μl of 2% (v/v) H3PO4, plates were aspirated and washed two times with 200 μl 0.9% (w/v) NaCl. Incorporation of 33Pi was determined with a microplate scintillation counter. IC50 calculation: the residual activity (in %) for each well of a particular plate was calculated by using the following formula: Res. Activity (%)=100×[(cpm of compound−low control)/(high control−low control)] […] The fitting method used was a least-squares fit. Materials: The dog (Canis lupus familiaris) protein kinases IRAK4, JAK1, JAK2 and SYK had been recombinantly expressed in Sf9 insect cells and purified by affinity chromatography.

JAK1 = JAK1 (Canis lupus familiaris, UniProt A0A8I3RS40); test: Radiometric protein kinase assay, dog JAK1; type: biochemical, Dog (Canis lupus familiaris); conditions: 3 μM ATP
Experimental: as §1, §2, §3

JAK2 = JAK2 (Canis lupus familiaris, UniProt A0A8C0QV87); test: Radiometric protein kinase assay, dog JAK2; type: biochemical, Dog (Canis lupus familiaris); conditions: 0.3 μM ATP
Experimental: as §1, §2, §3

[2] = 0.8 mg/kg BID oral, 0.5 h post-challenge
[3] = 0.8 mg/kg BID oral, 1 h post-challenge
[4] = 0.8 mg/kg BID oral, 4 h post-challenge
[5] = 0.8 mg/kg BID oral, 6 h post-challenge
[6] = 0.8 mg/kg BID oral, 24 h post-challenge
[7] = 0.8 mg/kg BID oral, 48 h post-challenge
[8] = 2 mg/kg BID oral, 0.5 h post-challenge
[9] = 2 mg/kg BID oral, 1 h post-challenge
[10] = 2 mg/kg BID oral, 4 h post-challenge
[11] = 2 mg/kg BID oral, 6 h post-challenge
[12] = 2 mg/kg BID oral, 24 h post-challenge
[13] = 2 mg/kg BID oral, 48 h post-challenge

Sequence of JAK2 (A0A8C0QV87 1-1132): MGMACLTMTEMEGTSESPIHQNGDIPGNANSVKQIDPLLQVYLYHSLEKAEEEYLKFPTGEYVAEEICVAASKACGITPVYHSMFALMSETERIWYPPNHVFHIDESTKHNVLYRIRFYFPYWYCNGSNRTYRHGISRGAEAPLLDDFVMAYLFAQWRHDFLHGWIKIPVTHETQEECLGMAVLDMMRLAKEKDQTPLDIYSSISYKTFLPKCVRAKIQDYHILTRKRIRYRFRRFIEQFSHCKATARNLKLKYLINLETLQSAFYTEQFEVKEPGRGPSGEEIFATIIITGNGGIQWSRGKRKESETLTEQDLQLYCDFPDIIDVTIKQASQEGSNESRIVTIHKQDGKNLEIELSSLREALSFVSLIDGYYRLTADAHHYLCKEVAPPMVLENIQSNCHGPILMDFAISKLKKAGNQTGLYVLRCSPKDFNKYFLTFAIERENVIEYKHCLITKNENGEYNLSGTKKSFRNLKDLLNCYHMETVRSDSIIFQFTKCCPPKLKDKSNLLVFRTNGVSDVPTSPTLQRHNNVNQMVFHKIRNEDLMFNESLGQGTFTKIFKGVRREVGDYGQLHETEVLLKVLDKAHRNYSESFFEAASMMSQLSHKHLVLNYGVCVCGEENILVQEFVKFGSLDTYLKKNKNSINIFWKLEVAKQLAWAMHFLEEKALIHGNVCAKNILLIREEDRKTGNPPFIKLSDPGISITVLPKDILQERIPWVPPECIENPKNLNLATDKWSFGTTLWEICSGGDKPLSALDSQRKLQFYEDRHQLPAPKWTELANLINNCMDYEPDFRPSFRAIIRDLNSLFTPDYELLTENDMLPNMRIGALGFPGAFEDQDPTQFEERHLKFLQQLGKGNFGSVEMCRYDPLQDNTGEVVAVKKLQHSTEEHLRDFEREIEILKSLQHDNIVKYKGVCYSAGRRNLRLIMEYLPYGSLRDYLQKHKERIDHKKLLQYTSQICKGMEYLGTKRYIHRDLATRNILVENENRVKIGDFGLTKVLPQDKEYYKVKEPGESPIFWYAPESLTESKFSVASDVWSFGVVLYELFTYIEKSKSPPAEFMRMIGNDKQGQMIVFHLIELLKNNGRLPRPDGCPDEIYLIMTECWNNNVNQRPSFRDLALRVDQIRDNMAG
Sequence of SYK (A0A8I3P3G0 1-633): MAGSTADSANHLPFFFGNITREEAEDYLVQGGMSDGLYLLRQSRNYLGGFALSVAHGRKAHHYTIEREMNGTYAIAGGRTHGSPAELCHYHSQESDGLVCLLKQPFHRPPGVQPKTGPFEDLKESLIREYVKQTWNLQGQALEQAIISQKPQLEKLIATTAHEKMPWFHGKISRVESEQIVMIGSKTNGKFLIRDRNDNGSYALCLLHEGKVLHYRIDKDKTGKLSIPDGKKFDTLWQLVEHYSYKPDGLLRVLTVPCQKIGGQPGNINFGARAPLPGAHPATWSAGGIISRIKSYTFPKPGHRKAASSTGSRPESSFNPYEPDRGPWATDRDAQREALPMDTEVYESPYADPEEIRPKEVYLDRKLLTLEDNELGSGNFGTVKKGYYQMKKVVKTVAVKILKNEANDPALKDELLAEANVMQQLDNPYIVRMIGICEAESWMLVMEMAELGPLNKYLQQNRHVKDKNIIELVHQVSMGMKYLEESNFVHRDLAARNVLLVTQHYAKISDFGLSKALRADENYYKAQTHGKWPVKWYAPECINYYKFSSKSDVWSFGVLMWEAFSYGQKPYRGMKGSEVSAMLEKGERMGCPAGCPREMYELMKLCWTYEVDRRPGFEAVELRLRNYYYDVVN
Sequence of JAK1 (A0A8I3RS40 1-1159): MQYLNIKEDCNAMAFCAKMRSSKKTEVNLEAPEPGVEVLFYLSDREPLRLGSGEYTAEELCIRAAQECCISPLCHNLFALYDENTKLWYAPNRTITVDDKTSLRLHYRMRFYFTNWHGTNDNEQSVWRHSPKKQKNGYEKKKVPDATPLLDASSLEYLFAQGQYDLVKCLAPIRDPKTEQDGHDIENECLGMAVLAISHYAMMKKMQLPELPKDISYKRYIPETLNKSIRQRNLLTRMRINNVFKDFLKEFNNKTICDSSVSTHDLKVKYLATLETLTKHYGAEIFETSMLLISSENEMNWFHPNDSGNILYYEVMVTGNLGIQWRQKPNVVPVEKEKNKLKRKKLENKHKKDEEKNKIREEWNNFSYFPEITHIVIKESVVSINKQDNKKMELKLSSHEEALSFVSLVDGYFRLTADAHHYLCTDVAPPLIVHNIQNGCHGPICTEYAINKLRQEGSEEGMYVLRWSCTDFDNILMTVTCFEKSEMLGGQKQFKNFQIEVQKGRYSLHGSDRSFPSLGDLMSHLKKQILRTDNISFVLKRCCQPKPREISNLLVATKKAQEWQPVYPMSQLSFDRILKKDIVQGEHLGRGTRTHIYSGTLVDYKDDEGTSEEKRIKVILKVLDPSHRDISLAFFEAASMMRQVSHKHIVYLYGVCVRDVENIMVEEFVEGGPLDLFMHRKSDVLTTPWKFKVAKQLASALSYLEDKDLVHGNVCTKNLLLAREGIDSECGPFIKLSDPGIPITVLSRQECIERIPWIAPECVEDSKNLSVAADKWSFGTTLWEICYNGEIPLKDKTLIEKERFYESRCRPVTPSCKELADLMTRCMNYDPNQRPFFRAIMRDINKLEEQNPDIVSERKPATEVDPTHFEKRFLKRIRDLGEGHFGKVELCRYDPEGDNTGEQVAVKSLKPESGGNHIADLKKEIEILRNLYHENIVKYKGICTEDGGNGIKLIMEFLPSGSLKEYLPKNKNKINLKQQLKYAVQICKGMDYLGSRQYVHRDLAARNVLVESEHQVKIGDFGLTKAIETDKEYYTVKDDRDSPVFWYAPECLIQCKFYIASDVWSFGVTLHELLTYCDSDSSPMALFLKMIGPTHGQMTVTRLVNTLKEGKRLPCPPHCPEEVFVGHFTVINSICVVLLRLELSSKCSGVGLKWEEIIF
Sequence of IRAK4 (A0A8I3S726 1-460): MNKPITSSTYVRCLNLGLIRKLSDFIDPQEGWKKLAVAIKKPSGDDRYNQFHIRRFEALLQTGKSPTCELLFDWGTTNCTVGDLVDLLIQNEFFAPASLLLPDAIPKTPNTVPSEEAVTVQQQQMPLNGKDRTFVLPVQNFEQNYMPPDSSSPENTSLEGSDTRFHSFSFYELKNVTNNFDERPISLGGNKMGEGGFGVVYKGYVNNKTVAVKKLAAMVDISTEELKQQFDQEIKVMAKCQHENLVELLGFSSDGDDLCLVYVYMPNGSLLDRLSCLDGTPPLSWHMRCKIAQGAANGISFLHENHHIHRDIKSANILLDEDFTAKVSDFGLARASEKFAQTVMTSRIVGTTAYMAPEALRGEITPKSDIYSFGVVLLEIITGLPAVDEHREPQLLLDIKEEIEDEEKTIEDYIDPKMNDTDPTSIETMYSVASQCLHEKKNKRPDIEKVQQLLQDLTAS

Structure (SMILES): Cn1cc(-c2nc(N[C@@H]3CCCC[C@@H]3N)c(F)c3c2C(=O)NC3)cn1 [IIIa, 6-((1R,2S)-2-aminocyclohexylamino)-7-fluoro-4-(1-methyl-1H-pyrazol-4-yl)-1H-pyrrolo[3,4-c]pyridine-3(2H)-one]
Percentage of reduction of Edema (compared to untreated control, median values) [1, 2]: 41%
Percentage of reduction of Erythema (compared to untreated control, median values) [1, 2]: 33%
Percentage of reduction of Edema (compared to untreated control, median values) [1, 3]: 52%
Percentage of reduction of Erythema (compared to untreated control, median values) [1, 3]: 63%
Percentage of reduction of Edema (compared to untreated control, median values) [1, 4]: 39%
Percentage of reduction of Erythema (compared to untreated control, median values) [1, 4]: 30%
Percentage of reduction of Edema (compared to untreated control, median values) [1, 5]: 49%
Percentage of reduction of Erythema (compared to untreated control, median values) [1, 5]: 28%
Percentage of reduction of Edema (compared to untreated control, median values) [1, 6]: 41%
Percentage of reduction of Erythema (compared to untreated control, median values) [1, 6]: 43%
Percentage of reduction of Edema (compared to untreated control, median values) [1, 7]: 100%
Percentage of reduction of Erythema (compared to untreated control, median values) [1, 7]: 100%
reduction rates of edema ([1]; 0.8 mg/kg BID): 39-100%
reduction rates of erythema ([1]; 0.8 mg/kg BID): 28-100%
comparative reduction of edema in the CAD model (% compared the control group), up to ([1]; 2 mg/kg BID): > 75%
comparative reduction of erythema in the CAD model (% compared the control group), up to ([1]; 2 mg/kg BID): > 75%
Percentage of reduction of Edema (compared to untreated control, median values) [1, 8]: 76%
Percentage of reduction of Erythema (compared to untreated control, median values) [1, 8]: 74%
Percentage of reduction of Edema (compared to untreated control, median values) [1, 9]: 81%
Percentage of reduction of Erythema (compared to untreated control, median values) [1, 9]: 76%
Percentage of reduction of Edema (compared to untreated control, median values) [1, 10]: 75%
Percentage of reduction of Erythema (compared to untreated control, median values) [1, 10]: 75%
Percentage of reduction of Edema (compared to untreated control, median values) [1, 11]: 79%
Percentage of reduction of Erythema (compared to untreated control, median values) [1, 11]: 76%
Percentage of reduction of Edema (compared to untreated control, median values) [1, 12]: 75%
Percentage of reduction of Erythema (compared to untreated control, median values) [1, 12]: 69%
Percentage of reduction of Edema (compared to untreated control, median values) [1, 13]: 100%
Percentage of reduction of Erythema (compared to untreated control, median values) [1, 13]: 100%
reduction rates of edema ([1]; 2 mg/kg BID): 75-100%
reduction rates of erythema ([1]; 2 mg/kg BID): 69-100%
effect on clinical signs of CAD (edema and erythema) ([1]; House Dust Mite model, oral BID): significantly reduced

pIC50 (IRAK4): 7.99
pIC50 (SYK): 6.49
pIC50 (JAK1): 6.33
pIC50 (JAK2): 6.20
Structure (SMILES): Cn1cc(-c2nc(N[C@@H]3CCCC[C@@H]3N)c(Cl)c3c2C(=O)NC3)cn1 [IVa, 6-((1R,2S)-2-Aminocyclohexylamino)-7-chloro-4-(1-methyl-1H-pyrazol-4-yl)-1H-pyrrolo[3,4-c]pyridin-3(2H)-one]
